Data on ten molecules can be found in ChEMBL document CHEMBL1141926, “Synthesis and anthelmintic activity of 7-substituted 3,4a-dimethyl-4a,5a,8a,8b-tetrahydro-6H-pyrrolo[3',4':4,5]furo[3,2-b]pyridine-6,8(7H)-diones” (Bioorg Med Chem Lett, 2005).

The test system of data set [1] is Haemonchus contortus. Description: In vivo percentage Haemonchus contortus egg reduction in sheep at dose 0.05 mg/kg body weight. It is filed as functional.
Data set [2] is described as follows: Partition coefficient (logP) (HPLC). It is filed as physicochemical. Particulars: octanol/water.
Data set [3] has as its system Haemonchus contortus. In words: In vivo percentage Haemonchus contortus egg reduction in sheep at dose 20 mg/kg body weight. The format is functional.
The test system of data set [4] is Haemonchus contortus. In words: In vivo percentage Haemonchus contortus egg reduction in sheep at dose. 20 mg/kg body weight. It is filed as functional, organism-based. Set-up: dose 20 mg/kg. Particulars: at 20 mg/kg.
Data set [5] deals with Haemonchus contortus. In words: In vivo percentage Haemonchus contortus egg reduction in sheep at dose 0.01 mg/kg body weight. The format is functional.
Data set [6] deals with Haemonchus contortus. In words: In vivo percentage Haemonchus contortus egg reduction in sheep at dose 0.25 mg/kg body weight. It is filed as functional.
Data set [7] has as its system Haemonchus contortus. Description: In vivo percentage Haemonchus contortus egg reduction in sheep at dose 0.10 mg/kg body weight. The format is functional. Particulars: dose 0.1 mg/kg.
Data set [8] deals with Haemonchus contortus. In words: In vivo percentage Haemonchus contortus egg reduction in sheep at dose 0.25 mg/kg body weight; Range 50-75%. The format is functional.

Bounds are passed on as bounds.

As a reminder, the logP is a log measure of how a compound divides between an organic and an aqueous phase. Consider `CCCCN1C(=O)C2OC3(C)C=C(C)C=NC3C2C1=O` (stereo not drawn), for which the Reduction entry in data set [1] is reported as “>=95%”. For the same molecule, the logP in data set [2] was found to be 1.3.

`COC(=O)Nc1nc2cc(C(=O)c3ccccc3)ccc2[nH]1` [MEBENDAZOLE]: the Reduction result in data set [3] is “>=95%”.

In data set [4], IVERMECTIN yielded a Reduction above 95%.

Take `CCN1C(=O)C2OC3(C)C=C(C)C=NC3C2C1=O` (stereo not drawn): in data set [5], the Reduction result was “>=95%”. In data set [2], this molecule returned a logP of 0.46.

For `CC1=CC2(C)OC3C(=O)N([C@@H](C)c4ccccc4)C(=O)C3C2N=C1` (stereo partly drawn), the Reduction entry in data set [1] is recorded as “>=95%”. The logP in data set [2] was 1.7.

`CCN1C(=O)[C@@H]2[C@H](O[C@@]3(C)C=C(C)C=N[C@H]23)C1=O`: in data set [6], the Reduction entry is “>=95%”. In data set [2], the logP was found to be 0.46.

Take `CC1=CC2(C)OC3C(=O)N(Cc4ccccc4)C(=O)C3C2N=C1` (stereo not drawn): the Reduction result in data set [7] is recorded as “>=95%”. In data set [2], this molecule returned a logP of 1.51.

In the case of `CC1=CC2(C)OC3C(=O)N(C4CC4)C(=O)C3C2N=C1` (stereo not drawn), in data set [1], the Reduction result is recorded as “>=95%”. Also, in data set [2], the logP turned out to be 0.5.

As for `CCN1C(=O)[C@H]2[C@@H](O[C@]3(C)C=C(C)C=N[C@@H]23)C1=O`, the Reduction in data set [8] is recorded as 75%. Further, the logP in data set [2] is 0.46.

For `CC1=CC2(C)OC3C(=O)N(C)C(=O)C3C2N=C1` (stereo not drawn), the Reduction result in data set [7] is given as “>=95%”. The lipophilicity (logP) in data set [2] was below 0.
